According to patent US11731980B1, “Furo[3,4-b]quinolone compounds as antibacterial agents” (KING FAISAL UNIVERSITY, priority 2023, dated 2023):
In brackets after ≈: the same amount, converted by molar mass. Where two headings read alike, the source gives them in different places.

Assays:
[1] = tested on: Bacillus subtilis MTCC 441; assay: In vitro antibacterial activity, CLSI M07-A10 dilution (MIC); assay type: cell-based; details: MTCC441
[2] = tested on: Pseudomonas aeruginosa MTCC 741; assay: as above; assay type: cell-based; details: MTCC741
[3] = tested on: Staphylococcus aureus ATCC BAA-1556 (MERSA resistant); assay: as above; assay type: cell-based; details: ATCCBAA1556
[4] = tested on: Staphylococcus aureus ATCC 29213; assay: as above; assay type: cell-based; details: ATCC29213
[5] = tested on: Escherichia coli MTCC 443; assay: as above; assay type: cell-based; details: MTCC443
[6] = tested on: Staphylococcus epidermidis; assay: as above; assay type: cell-based
[7] = tested on: Klebsiella pneumonia MTCC 618; assay: as above; assay type: cell-based; details: Klebsiella pneumoniae, MTCC618
DNA gyrase from E. coli = biological target: T1, DNA gyrase from E. coli (Escherichia coli, UniProt P0AES4+P0AES6); assay: Inhibitory activity on E. coli DNA gyrase (Inspiralis assay); assay type: biochemical
T1 construct: purchased Inspiralis
T1 sequence (P0AES4 whole entry, one chain of several): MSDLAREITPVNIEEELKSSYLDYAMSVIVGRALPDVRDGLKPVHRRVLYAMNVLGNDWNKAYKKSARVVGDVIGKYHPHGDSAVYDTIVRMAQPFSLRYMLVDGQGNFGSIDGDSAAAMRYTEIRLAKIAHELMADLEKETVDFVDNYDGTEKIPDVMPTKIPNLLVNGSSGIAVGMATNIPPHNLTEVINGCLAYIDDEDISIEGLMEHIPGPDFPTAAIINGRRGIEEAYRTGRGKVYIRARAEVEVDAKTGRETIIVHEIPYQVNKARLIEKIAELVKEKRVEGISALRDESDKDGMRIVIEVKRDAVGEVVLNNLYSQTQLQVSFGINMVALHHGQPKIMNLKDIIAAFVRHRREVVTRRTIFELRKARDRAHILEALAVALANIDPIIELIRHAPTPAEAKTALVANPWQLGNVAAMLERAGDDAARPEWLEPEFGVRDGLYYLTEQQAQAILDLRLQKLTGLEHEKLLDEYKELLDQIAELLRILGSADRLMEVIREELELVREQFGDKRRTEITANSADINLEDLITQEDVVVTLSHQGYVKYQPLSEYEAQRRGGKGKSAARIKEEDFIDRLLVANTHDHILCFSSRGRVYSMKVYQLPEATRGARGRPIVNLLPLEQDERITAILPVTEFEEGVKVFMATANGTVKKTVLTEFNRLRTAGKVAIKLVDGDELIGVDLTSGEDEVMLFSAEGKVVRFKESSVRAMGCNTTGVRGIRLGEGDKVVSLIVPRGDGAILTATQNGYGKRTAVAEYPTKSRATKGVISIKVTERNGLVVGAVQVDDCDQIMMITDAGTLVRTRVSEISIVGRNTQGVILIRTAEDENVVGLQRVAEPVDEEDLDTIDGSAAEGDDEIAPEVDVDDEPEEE
Experimental: Inhibitory potencies were investigated utilizing the Inspiralis assay on streptavidin-coated 96-well microtiter plates. First, the plates were rehydrated with buffer (20 mM Tris-HCl with pH 7.6, 0.01% w/v BSA, 0.05% v/v Tween 20, 137 mM NaCl) and the biotinylated oligonucleotide was then immobilized. After washing off the unbound oligonucleotide, the enzyme test was performed. The reaction volume of 30 μL in buffer (35 mM Tris×HCl with pH 7.5, 4 mM MgCl2, 24 mM KCl, 2 mM DTT, 1.8 mM spermidine, 1 mM ATP, 6.5% w/v glycerol, 0.1 mg/mL albumin) contained 1.5 U of DNA gyrase from E. coli, 0.75 μg of relaxed pNO1 plasmid, and 3 μL solution of the inhibitor in 10% DMSO and 0.008% Tween 20. Reaction solutions were incubated at 37° C. for 30 min. After that, the TF buffer (50 mM NaOAc with pH 5.0, 50 mM NaCl and 50 mM MgCl2) was added to terminate the enzymatic reaction. After additional incubation for 30 min at rt, during which biotinoligonucleotide-plasmid triplex was formed, the unbound plasmid was washed off using TF buffer and SybrGOLD in T10 buffer (10 mM Tris HCl with pH 8.0 and 1 mM EDTA) was added. The fluorescence was measured with a microplate reader (BioTek Synergy H4, excitation: 485 nm, emission: 535 nm). Initial screening was done at 100 or 10 μM concentration of inhibitors. […] GraphPad Prism software was used to calculate the IC50 values. […]

[8] = tested on: Mycobacterium tuberculosis H37Rv strain; assay: Anti-tubercular alamar blue microplate assay (MIC); assay type: cell-based; details: 168 h, M. tuberculosis H37Rv, seven days at 37° C., read-out: anti-mycobacterial activity (MIC)
[9] = tested on: Enterococcus faecium ATCC 51559 (VRE resistant); assay: In vitro antibacterial activity, CLSI M07-A10 dilution (MIC); assay type: cell-based
[10] = tested on: Enterococcus faecium ATCC 35667; assay: as above; assay type: cell-based; details: ATCC35667

| SMILES | MIC ([1]; Bacillus subtilis MTCC 441, read-out: MIC) | MIC ([2]; Pseudomonas aeruginosa MTCC 741, read-out: MIC) | MIC ([3]; Staphylococcus aureus ATCC BAA-1556 (MERSA resistant), read-out: MIC) | MIC ([4]; Staphylococcus aureus ATCC 29213, read-out: MIC) | MIC ([5]; Escherichia coli MTCC 443, read-out: MIC) | MIC ([6]; read-out: MIC) | MIC ([7]; Klebsiella pneumonia MTCC 618, read-out: MIC) | IC50 (DNA gyrase from E. coli) | MIC [8] | MIC ([9]; Enterococcus faecium ATCC 51559 (VRE resistant), read-out: MIC) | MIC ([10]; Enterococcus faecium ATCC 35667, read-out: MIC) | MIC ([1]; Bacillus subtilis) | MIC ([2]; Pseudomonas aeruginosa) | MIC ([3]; Staphylococcus aureus) | MIC ([4]; Staphylococcus aureus) | MIC ([5]; Escherichia coli) | MIC [6] | MIC [7] | MIC ([9]; Enterococcus faecium) | MIC ([10]; Enterococcus faecium) |
| --- | --- | --- | --- | --- | --- | --- | --- | --- | --- | --- | --- | --- | --- | --- | --- | --- | --- | --- | --- | --- |
| CCCCCN(C)Cc1cc(-c2c3c(nc4cc(NC(=O)C5CC5)ccc24)COC3=O)ccc1C(=O)O [Compound 8, 4-(6-(cyclopropanecarboxamido)-1-oxo-1,3-dihydrofuro[3,4-b]quinolin-9-yl)-2-((methyl(pentyl)amino)methyl)benzoic acid] | 8 µg/mL (≈ 15.9 µM) | 8 µg/mL (≈ 15.9 µM) | 16 µg/mL (≈ 31.9 µM) | 16 µg/mL (≈ 31.9 µM) | 16 µg/mL (≈ 31.9 µM) | 16 µg/mL (≈ 31.9 µM) | 8 µg/mL (≈ 15.9 µM) | 550 nM | 4 µg/mL (≈ 7.97 µM) | 16 µg/mL (≈ 31.9 µM) | 8 µg/mL (≈ 15.9 µM) |  |  |  |  |  |  |  |  |  |
| CN[C@H](CC(C)C)C(=O)N[C@H]1C(=O)N[C@@H](CC(N)=O)C(=O)N[C@H]2C(=O)N[C@H]3C(=O)N[C@H](C(=O)N[C@H](C(=O)O)c4cc(O)cc(O)c4-c4cc3ccc4O)[C@H](O)c3ccc(c(Cl)c3)Oc3cc2cc(c3O[C@@H]2O[C@H](CO)[C@@H](O)[C@H](O)[C@H]2O[C@H]2C[C@](C)(N)[C@H](O)[C@H](C)O2)Oc2ccc(cc2Cl)[C@H]1O [Vancomycin, reference compound] |  |  |  |  |  |  |  |  |  |  |  | 0.5 µg/mL (≈ 0.345 µM) | > 128 µg/mL | 1 µg/mL (≈ 0.69 µM) | 1 µg/mL (≈ 0.69 µM) | > 128 µg/mL | 1 µg/mL (≈ 0.69 µM) | > 128 µg/mL | > 128 µg/mL | 0.5 µg/mL (≈ 0.345 µM) |
